Experiments:
[1] = test system: rice flat sedge; test: Test Example 3: herbicidal effect by foliage application, Wagner pot (Table 18, symbol E); assay type: in vivo, rice flat sedge (Cyperus iria); conditions: amount of applied herbicide 320 g/ha
In short: (§1)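 Plants were sown in alluvial soil held under 0.1–0.5 cm standing water and grown 14 days in a greenhouse at 25–30 °C. An emulsifiable formulation, water-diluted to the set dose, was then sprayed onto the foliage, and effects were scored three weeks later using previously defined criteria.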

[2] = test system: velvetleaf; test: Test Example 5: herbicidal effect by foliage application, plastic box (Table 20, symbol M); assay type: in vivo, velvetleaf (Abutilon theophrasti); conditions: foliage application, 320 g/ha, evaluated three weeks after application
In short: (§2)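 Plants sown in sterilized diluvial soil and grown 14 days in a greenhouse at 25° C to 30° C, then sprayed on the foliage with the compound's emulsion diluted in water to a predetermined herbicide amount. Injury to weeds and crops scored three weeks after application on a visual rating scale.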

[3] = test system: barnyard grass; test: Test Example 5: herbicidal effect by foliage application, plastic box (Table 20, symbol H); assay type: in vivo, barnyard grass (Echinochloa crus-galli); conditions: foliage application, 320 g/ha, evaluated three weeks after application
In short: as §2

[4] = test system: wild oat; test: Test Example 5: herbicidal effect by foliage application, plastic box (Table 20, symbol I); assay type: in vivo, wild oat (Avena fatua); conditions: foliage application, 320 g/ha, evaluated three weeks after application
In short: as §2

[5] = test system: barnyard grass; test: Test Example 4: herbicidal effect by soil treatment (Table 19, symbol H); assay type: in vivo, barnyard grass (Echinochloa crus-galli); conditions: amount of applied herbicide 320 g/ha
In short: (§3)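 Three weeks of greenhouse growth at 25° C. to 30° C. followed a uniform surface spray of water-diluted emulsion at a predetermined herbicide amount. Seeds had been sown beforehand under about 1.5 cm of sterilized diluvial soil. Grading followed criteria set out in an earlier test.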

[6] = test system: persian speedwell; test: Test Example 5: herbicidal effect by foliage application, plastic box (Table 20, symbol R); assay type: in vivo, Persian speedwell (Veronica persica); conditions: foliage application, 320 g/ha, evaluated three weeks after application
In short: as §2

[7] = test system: southern crabgrass; test: Test Example 4: herbicidal effect by soil treatment (Table 19, symbol F); assay type: in vivo, southern crabgrass (Digitaria ciliaris); conditions: amount of applied herbicide 320 g/ha
In short: as §3

[8] = test system: windgrass; test: Test Example 4: herbicidal effect by soil treatment (Table 19, symbol L); assay type: in vivo, windgrass (Apera spica-venti); conditions: amount of applied herbicide 320 g/ha
In short: as §3

[9] = test system: southern crabgrass; test: Test Example 5: herbicidal effect by foliage application, plastic box (Table 20, symbol F); assay type: in vivo, southern crabgrass (Digitaria ciliaris); conditions: foliage application, 320 g/ha, evaluated three weeks after application
In short: as §2

[10] = test system: Italian ryegrass; test: Test Example 5: herbicidal effect by foliage application, plastic box (Table 20, symbol K); assay type: in vivo, Italian ryegrass (Lolium multiflorum); conditions: foliage application, 320 g/ha, evaluated three weeks after application
In short: as §2

[11] = test system: lambsquarters; test: Test Example 5: herbicidal effect by foliage application, plastic box (Table 20, symbol O); assay type: in vivo, lambsquarters (Chenopodium album); conditions: foliage application, 320 g/ha, evaluated three weeks after application
In short: as §2

[12] = test system: false cleavers; test: Test Example 5: herbicidal effect by foliage application, plastic box (Table 20, symbol Q); assay type: in vivo, false cleavers (Galium spurium); conditions: foliage application, 320 g/ha, evaluated three weeks after application
In short: as §2

[13] = test system: barnyard grass; test: Test Example 3: herbicidal effect by foliage application, Wagner pot (Table 18, symbol H); assay type: in vivo, barnyard grass (Echinochloa crus-galli); conditions: amount of applied herbicide 320 g/ha
In short: as §1

[14] = test system: chickweed; test: Test Example 5: herbicidal effect by foliage application, plastic box (Table 20, symbol P); assay type: in vivo, common chickweed (Stellaria media); conditions: foliage application, 320 g/ha, evaluated three weeks after application
In short: as §2

[15] = test system: green foxtail; test: Test Example 4: herbicidal effect by soil treatment (Table 19, symbol G); assay type: in vivo, green foxtail (Setaria viridis); conditions: amount of applied herbicide 320 g/ha
In short: as §3

[16] = test system: persian speedwell; test: Test Example 4: herbicidal effect by soil treatment (Table 19, symbol R); assay type: in vivo, Persian speedwell (Veronica persica); conditions: amount of applied herbicide 320 g/ha
In short: as §3

[17] = test system: redroot pigweed; test: Test Example 5: herbicidal effect by foliage application, plastic box (Table 20, symbol N); assay type: in vivo, redroot pigweed (Amaranthus retroflexus); conditions: foliage application, 320 g/ha, evaluated three weeks after application
In short: as §2

[18] = test system: Chinese sprangletop; test: Test Example 3: herbicidal effect by foliage application, Wagner pot (Table 18, symbol D); assay type: in vivo, chinese sprangletop (Leptochloa chinensis); conditions: amount of applied herbicide 320 g/ha
In short: as §1

[19] = test system: green foxtail; test: Test Example 5: herbicidal effect by foliage application, plastic box (Table 20, symbol G); assay type: in vivo, green foxtail (Setaria viridis); conditions: foliage application, 320 g/ha, evaluated three weeks after application
In short: as §2

[20] = test system: false cleavers; test: Test Example 4: herbicidal effect by soil treatment (Table 19, symbol Q); assay type: in vivo, false cleavers (Galium spurium); conditions: amount of applied herbicide 320 g/ha
In short: as §3

[21] = test system: Italian ryegrass; test: Test Example 4: herbicidal effect by soil treatment (Table 19, symbol K); assay type: in vivo, Italian ryegrass (Lolium multiflorum); conditions: amount of applied herbicide 320 g/ha
In short: as §3

[22] = test system: blackgrass; test: Test Example 4: herbicidal effect by soil treatment (Table 19, symbol J); assay type: in vivo, blackgrass (Alopecurus myosuroides); conditions: amount of applied herbicide 320 g/ha
In short: as §3

[23] = test system: velvetleaf; test: Test Example 4: herbicidal effect by soil treatment (Table 19, symbol M); assay type: in vivo, velvetleaf (Abutilon theophrasti); conditions: amount of applied herbicide 320 g/ha
In short: as §3

[24] = test system: windgrass; test: Test Example 5: herbicidal effect by foliage application, plastic box (Table 20, symbol L); assay type: in vivo, windgrass (Apera spica-venti); conditions: foliage application, 320 g/ha, evaluated three weeks after application
In short: as §2

[25] = test system: blackgrass; test: Test Example 5: herbicidal effect by foliage application, plastic box (Table 20, symbol J); assay type: in vivo, blackgrass (Alopecurus myosuroides); conditions: foliage application, 320 g/ha, evaluated three weeks after application
In short: as §2

[26] = test system: wild oat; test: Test Example 4: herbicidal effect by soil treatment (Table 19, symbol I); assay type: in vivo, wild oat (Avena fatua); conditions: amount of applied herbicide 320 g/ha
In short: as §3

[27] = test system: lambsquarters; test: Test Example 4: herbicidal effect by soil treatment (Table 19, symbol O); assay type: in vivo, lambsquarters (Chenopodium album); conditions: amount of applied herbicide 320 g/ha
In short: as §3

[28] = test system: redroot pigweed; test: Test Example 4: herbicidal effect by soil treatment (Table 19, symbol N); assay type: in vivo, redroot pigweed (Amaranthus retroflexus); conditions: amount of applied herbicide 320 g/ha
In short: as §3

[29] = test system: chickweed; test: Test Example 4: herbicidal effect by soil treatment (Table 19, symbol P); assay type: in vivo, common chickweed (Stellaria media); conditions: amount of applied herbicide 320 g/ha
In short: as §3

With `Cc1nn(C)c(=O)c(-c2c(-c3ccc4c(c3)OCCO4)sc3ccc(Cl)cc23)c1O` [2-127] the “herbicidal effect on E: rice flat sedge” value [1] was 5 (Herbicidal rate of 90% or more (almost completely withered)), the “herbicidal effect on M: velvetleaf” value [2] was 4 (Herbicidal rate of 70% or more and less than 90%) and the “herbicidal effect on H: barnyard grass” value [3] was 1 (Herbicidal rate of 5% or more and less than 20%). The “herbicidal effect on I: wild oat” value [4] was 0 (Herbicidal rate of 5% or less (almost no effect)), the “H: barnyard grass, herbicidal effect rating” value [5] was 0 (Herbicidal rate of 5% or less (almost no effect)) and the “herbicidal effect on R: persian speedwell” value [6] was 5 (Herbicidal rate of 90% or more (almost completely withered)). For the same molecule, the “F: southern crabgrass, herbicidal effect rating” value [7] was 0 (Herbicidal rate of 5% or less (almost no effect)), the “L: windgrass, herbicidal effect rating” value [8] was 0 (Herbicidal rate of 5% or less (almost no effect)) and the “herbicidal effect on F: southern crabgrass” value [9] was 0 (Herbicidal rate of 5% or less (almost no effect)). For the same molecule, the “herbicidal effect on K: Italian ryegrass” value [10] was 0 (Herbicidal rate of 5% or less (almost no effect)), the “herbicidal effect on O: lambsquarters” value [11] was 3 (Herbicidal rate of 40% or more and less than 70%) and the “herbicidal effect on Q: false cleavers” value [12] was 0 (Herbicidal rate of 5% or less (almost no effect)). The “herbicidal effect on H: barnyard grass” value [13] was 3 (Herbicidal rate of 40% or more and less than 70%), the “herbicidal effect on P: chickweed” value [14] was 5 (Herbicidal rate of 90% or more (almost completely withered)) and the “G: green foxtail, herbicidal effect rating” value [15] was 0 (Herbicidal rate of 5% or less (almost no effect)). The “R: persian speedwell, herbicidal effect rating” value [16] was 5 (Herbicidal rate of 90% or more (almost completely withered)), the “herbicidal effect on N: redroot pigweed” value [17] was 3 (Herbicidal rate of 40% or more and less than 70%) and the “herbicidal effect on D: Chinese sprangletop” value [18] was 0 (Herbicidal rate of 5% or less (almost no effect)). For the same molecule, the “herbicidal effect on G: green foxtail” value [19] was 0 (Herbicidal rate of 5% or less (almost no effect)), the “Q: false cleavers, herbicidal effect rating” value [20] was 0 (Herbicidal rate of 5% or less (almost no effect)) and the “K: Italian ryegrass, herbicidal effect rating” value [21] was 0 (Herbicidal rate of 5% or less (almost no effect)). For the same molecule, the “J: blackgrass, herbicidal effect rating” value [22] was 0 (Herbicidal rate of 5% or less (almost no effect)), the “M: velvetleaf, herbicidal effect rating” value [23] was 4 (Herbicidal rate of 70% or more and less than 90%) and the “herbicidal effect on L: windgrass” value [24] was 0 (Herbicidal rate of 5% or less (almost no effect)). The “herbicidal effect on J: blackgrass” value [25] was 0 (Herbicidal rate of 5% or less (almost no effect)), the “I: wild oat, herbicidal effect rating” value [26] was 0 (Herbicidal rate of 5% or less (almost no effect)) and the “O: lambsquarters, herbicidal effect rating” value [27] was 4 (Herbicidal rate of 70% or more and less than 90%). The “N: redroot pigweed, herbicidal effect rating” value [28] was 0 (Herbicidal rate of 5% or less (almost no effect)) and the “P: chickweed, herbicidal effect rating” value [29] was 3 (Herbicidal rate of 40% or more and less than 70%).
